According to US20230233569A1 (Revolution Medicines, Inc., priority 2020, published 2023):

Tests used:
[1] = test system: P70S6K (Thr389) phosphorylation (mTORC1) in MDA-MB-468 cells; test: Cell based AlphaLISA assay, mTOR kinase cellular assay: inhibition of p-P70S6K (T389) in MDA-MB-468 cells; details: Homo sapiens, read-out: pIC50 for Inhibition of mTORC1 and mTORC2 Substarte Phosphorylation p-P70S6K-(T389) (converted)
Experimental: (§1) Cell Based AlphaLISA Assays for Determining IC50 For Inhibition of P-Akt (S473), P-4E-BP1 (T37/46), and P-P70S6K (T389) in MDA-MB-468 Cells
(§2) mTOR Kinase Cellular Assay
(§3) To measure functional activity of mTORC1 and mTORC2 in cells the phosphorylation of 4EBP1 (Thr37/46) and P70S6K (Thr389), and AKT1/2/3 (Ser473) was monitored using AlphaLisa SureFire Ultra Kits (Perkin Elmer). MDA-MB-468 cells (ATCC® HTB-132) were cultured in 96-well tissue culture plates and treated with compounds in the disclosure at concentrations varying from 0.017-1,000 nM for two to four hours at 37° C. Incubations were terminated by removal of the assay buffer and addition of lysis buffer provided with the assay kit. Samples were processed according to the manufacturer's instructions. The Alpha signal from the respective phosphoproteins was measured in duplicate using a microplate reader (Envision, Perkin-Elmer or Spectramax M5, Molecular Devices). Inhibitor concentration response curves were analyzed using normalized IC50 regression curve fitting with control based normalization.

[2] = test system: 4EBP1 (Thr37/46) phosphorylation (mTORC1) in MDA-MB-468 cells; test: Cell based AlphaLISA assay, mTOR kinase cellular assay: inhibition of p-4E-BP1 (T37/46) in MDA-MB-468 cells; details: Homo sapiens, read-out: pIC50 for Inhibition of mTORC1 and mTORC2 Substarte Phosphorylation p-4E-BP1-(T37/46) (converted)
Experimental: as §1, §2, §3

[3] = test system: AKT1/2/3 (Ser473) phosphorylation (mTORC2) in MDA-MB-468 cells; test: Cell based AlphaLISA assay, mTOR kinase cellular assay: inhibition of p-Akt (S473) in MDA-MB-468 cells; details: Homo sapiens, read-out: pIC50 for Inhibition of mTORC1 and mTORC2 Substarte Phosphorylation p-AKT1/2/3-(S473) (converted)
Outline: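 MDA-MB-468 cells treated with compound at 0.017-1,000 nM for two to four hours at 37° C, then lysed. Phospho-AKT1/2/3 S473, 4EBP1 T37/46 and P70S6K T389 quantified by AlphaLISA SureFire Ultra in duplicate; IC50 from normalized regression with control-based normalization.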

SMILES | IC50 [1] | IC50 [2] | IC50 [3]
CO[C@H]1C[C@@H]2CC[C@@H](C)[C@@](O)(O2)C(=O)C(=O)N2CCCC[C@H]2C(=O)O[C@H]([C@H](C)C[C@@H]2CC[C@@H](OC(=O)NCc3cnc(N4CCN(C(=O)CCOCCN5CCN(c6ncc(C(=O)NCCOCCC(=O)NCCCCn7nc(-c8cnc9[nH]ccc9c8)c8c(N)ncnc87)cn6)CC5)CC4)nc3)[C@H](OC)C2)CC(=O)[C@H](C)/C=C(\C)[C@@H](O)[C@@H](OC)C(=O)[C@H](C)C[C@H](C)/C=C/C=C/C=C/1C [Example 66] | 10 to 1000 nM | 31.6 to 1000 nM | 3.16 to 31.6 nM
CO[C@H]1C[C@@H]2CC[C@@H](C)[C@@](O)(O2)C(=O)C(=O)N2CCCC[C@H]2C(=O)O[C@H]([C@H](C)C[C@@H]2CC[C@@H](OC(=O)NCCOCCOCCOCCOCCC(=O)NCCOCCOCCOCCOCCC(=O)N3CCc4cc(Cn5nc(-c6ccc7oc(N)nc7c6)c6c(N)ncnc65)ccc4C3)[C@H](OC)C2)CC(=O)[C@H](C)/C=C(\C)[C@@H](O)[C@@H](OC)C(=O)[C@H](C)C[C@H](C)/C=C/C=C/C=C/1C [Example 15] | ≤ 1 nM | ≤ 3.16 nM | 3.16 to 31.6 nM
CO[C@H]1C[C@@H]2CC[C@@H](C)[C@@](O)(O2)C(=O)C(=O)N2CCCC[C@H]2C(=O)O[C@H]([C@H](C)C[C@@H]2CC[C@@H](OC(=O)NCCOCCC(=O)NCc3cnc(N4CCN(C(=O)CCOCCN5CCN(c6ncc(C(=O)N7CCc8cc(Cn9nc(-c%10ccc%11oc(N)nc%11c%10)c%10c(N)ncnc%109)ccc8C7)cn6)CC5)CC4)nc3)[C@H](OC)C2)C[C@@H](O)[C@H](C)/C=C(\C)[C@@H](O)[C@@H](OC)C(=O)[C@H](C)C[C@H](C)/C=C/C=C/C=C/1C [Example 69] | ≤ 1 nM | ≤ 3.16 nM | 3.16 to 31.6 nM
CO[C@H]1C[C@@H]2CC[C@@H](C)[C@@](O)(O2)C(=O)C(=O)N2CCCC[C@H]2C(=O)O[C@H]([C@H](C)C[C@@H]2CC[C@@H](OC(=O)NCCOCCOCCOCCOCCOCCOCCOCCOCCC(=O)N3CCc4cc(Cn5nc(-c6ccc7oc(N)nc7c6)c6c(N)ncnc65)ccc4C3)[C@H](OC)C2)CC(=O)[C@H](C)/C=C(\C)[C@@H](O)[C@@H](OC)C(=O)[C@H](C)C[C@H](C)/C=C/C=C/C=C/1C [Example 2] | ≤ 1 nM | ≤ 3.16 nM | 3.16 to 31.6 nM
CO[C@H]1C[C@@H]2CC[C@@H](C)[C@@](O)(O2)C(=O)C(=O)N2CCCC[C@H]2C(=O)O[C@H]([C@H](C)C[C@@H]2CC[C@@H](OC(=O)N3CCc4nc(N5CCN(C(=O)CCOCCN6CCN(c7ncc(C(=O)N8CCc9cc(Cn%10nc(-c%11cnc%12[nH]ccc%12c%11)c%11c(N)ncnc%11%10)ccc9C8)cn7)CC6)CC5)ncc4C3)[C@H](OC)C2)CC(=O)[C@H](C)/C=C(\C)[C@@H](O)[C@@H](OC)C(=O)[C@H](C)C[C@H](C)/C=C/C=C/C=C/1C [Example 124] | ≤ 1 nM | ≤ 3.16 nM | 3.16 to 31.6 nM
CO[C@H]1C[C@@H]2CC[C@@H](C)[C@@](O)(O2)C(=O)C(=O)N2CCCC[C@H]2C(=O)O[C@H]([C@H](C)C[C@@H]2CC[C@@H](OC(=O)NCCOCCC(=O)NCc3cnc(N4CCN(C(=O)CCOCCN5CCN(c6ncc(C(=O)N7CCc8cc(Cn9nc(-c%10ccc%11oc(N)nc%11c%10)c%10c(N)ncnc%109)ccc8C7)cn6)CC5)CC4)nc3)[C@H](OC)C2)CC(=O)[C@H](C)/C=C(\C)[C@@H](O)[C@@H](OC)C(=O)[C@H](C)C[C@H](C)/C=C/C=C/C=C/1C [Example 67] | 10 to 1000 nM | 31.6 to 1000 nM | 31.6 to 1000 nM
CO[C@H]1C[C@@H]2CC[C@@H](C)[C@@](O)(O2)C(=O)C(=O)N2CCCC[C@H]2C(=O)O[C@H]([C@H](C)C[C@@H]2CC[C@@H](OC(=O)N3CCc4nc(N5CCN(c6ncc(C(=O)N7CCN(c8ncc(C(=O)N9CCc%10cc(Cn%11nc(-c%12ccc%13oc(N)nc%13c%12)c%12c(N)ncnc%12%11)ccc%10C9)cn8)CC7)cn6)CC5)ncc4C3)[C@H](OC)C2)CC(=O)[C@H](C)/C=C(\C)[C@@H](O)[C@@H](OC)C(=O)[C@H](C)C[C@H](C)/C=C/C=C/C=C/1C [Example 62] | 1 to 10 nM | > 1000 nM | > 1000 nM
CO[C@H]1C[C@@H]2CC[C@@H](C)[C@@](O)(O2)C(=O)C(=O)N2CCCC[C@H]2C(=O)O[C@H]([C@H](C)C[C@@H]2CC[C@@H](OC(=O)NCc3cnc(N4CCN(C(=O)CCOCCN5CCN(c6ncc(C(=O)N7CCc8cc(Cn9nc(-c%10cnc%11[nH]ccc%11c%10)c%10c(N)ncnc%109)ccc8C7)cn6)CC5)CC4)nc3)[C@H](OC)C2)CC(=O)[C@H](C)/C=C(\C)[C@@H](O)[C@@H](OC)C(=O)[C@H](C)C[C@H](C)/C=C/C=C/C=C/1C [Example 52] | ≤ 1 nM | ≤ 3.16 nM | 
CO[C@H]1C[C@@H]2CC[C@@H](C)[C@@](O)(O2)C(=O)C(=O)N2CCCC[C@H]2C(=O)O[C@H]([C@H](C)C[C@@H]2CC[C@@H](OC(=O)NCCOCCOCCOCCOCCOCCC(=O)NCCOCCOCCOCCOCCOCCC(=O)N3CCc4cc(Cn5nc(-c6cnc7[nH]ccc7c6)c6c(N)ncnc65)ccc4C3)[C@H](OC)C2)CC(=O)[C@H](C)/C=C(\C)[C@@H](O)[C@@H](OC)C(=O)[C@H](C)C[C@H](C)/C=C/C=C/C=C/1C [Example 21] | ≤ 1 nM | ≤ 3.16 nM | 31.6 to 1000 nM
CO[C@H]1C[C@@H]2CC[C@@H](C)[C@@](O)(O2)C(=O)C(=O)N2CCCC[C@H]2C(=O)O[C@H]([C@H](C)C[C@@H]2CC[C@@H](OC(=O)N3CCc4nc(N5CCN(c6ncc(C(=O)NCCOCCOCCOCCOCCC(=O)N7CCc8cc(Cn9nc(-c%10cnc%11[nH]ccc%11c%10)c%10c(N)ncnc%109)ccc8C7)cn6)CC5)ncc4C3)[C@H](OC)C2)CC(=O)[C@H](C)/C=C(\C)[C@@H](O)[C@@H](OC)C(=O)[C@H](C)C[C@H](C)/C=C/C=C/C=C/1C [Example 36] | ≤ 1 nM | ≤ 3.16 nM | > 1000 nM
CO[C@H]1C[C@@H]2CC[C@@H](C)[C@@](O)(O2)C(=O)C(=O)N2CCCC[C@H]2C(=O)O[C@H]([C@H](C)C[C@@H]2CC[C@@H](OC(=O)NCc3cnc(N4CCN(c5ncc(C(=O)NCCOCCOCCOCCOCCC(=O)N6CCc7cc(Cn8nc(-c9ccc%10oc(N)nc%10c9)c9c(N)ncnc98)ccc7C6)cn5)CC4)nc3)[C@H](OC)C2)CC(=O)[C@H](C)/C=C(\C)[C@@H](O)[C@@H](OC)C(=O)[C@H](C)C[C@H](C)/C=C/C=C/C=C/1C [Example 27] | ≤ 1 nM | ≤ 3.16 nM | 3.16 to 31.6 nM
CO[C@H]1C[C@@H]2CC[C@@H](C)[C@@](O)(O2)C(=O)C(=O)N2CCCC[C@H]2C(=O)O[C@H]([C@H](C)C[C@@H]2CC[C@@H](OC(=O)NCc3cnc(N4CCN(C(=O)CN(C)CC(=O)NCCOCCOCCC(=O)NCCCCn5nc(-c6ccc7oc(N)nc7c6)c6c(N)ncnc65)CC4)nc3)[C@H](OC)C2)C[C@@H](OC)[C@H](C)/C=C(\C)[C@@H](O)[C@@H](OC)C(=O)[C@H](C)C[C@H](C)/C=C/C=C/C=C/1C [Example 104] | ≤ 1 nM | ≤ 3.16 nM | > 1000 nM
CO[C@H]1C[C@@H]2CC[C@@H](C)[C@@](O)(O2)C(=O)C(=O)N2CCCC[C@H]2C(=O)O[C@H]([C@H](C)C[C@@H]2CC[C@@H](OC(=O)NCc3cnc(N4CCN(c5ncc(C(=O)NCCOCCOCCOCCOCCC(=O)NCCCCn6nc(-c7cnc8[nH]ccc8c7)c7c(N)ncnc76)cn5)CC4)nc3)[C@H](OC)C2)CC(=O)[C@H](C)/C=C(\C)[C@@H](O)[C@@H](OC)C(=O)[C@H](C)C[C@H](C)/C=C/C=C/C=C/1C [Example 32] | ≤ 1 nM | ≤ 3.16 nM | 3.16 to 31.6 nM
CO[C@H]1C[C@@H]2CC[C@@H](C)[C@@](O)(O2)C(=O)C(=O)N2CCCC[C@H]2C(=O)O[C@H]([C@H](C)C[C@@H]2CC[C@@H](OC(=O)NCc3cnc(N4CCN(C(=O)CCOCCN5CCN(c6ncc(C(=O)NCCOCCC(=O)N7CCc8cc(Cn9nc(-c%10ccc%11oc(N)nc%11c%10)c%10c(N)ncnc%109)ccc8C7)cn6)CC5)CC4)nc3)[C@H](OC)C2)CC(=O)[C@H](C)/C=C(\C)[C@@H](O)[C@@H](OC)C(=O)[C@H](C)C[C@H](C)/C=C/C=C/C=C/1C [Example 64] | ≤ 1 nM | ≤ 3.16 nM | 3.16 to 31.6 nM
CO[C@H]1C[C@@H]2CC[C@@H](C)[C@@](O)(O2)C(=O)C(=O)N2CCCC[C@H]2C(=O)O[C@H]([C@H](C)C[C@@H]2CC[C@@H](OC(=O)NCCOCCC(=O)NCc3cnc(N4CCN(C(=O)CCOCCN5CCN(c6ncc(C(=O)NCCCCn7nc(-c8cnc9[nH]ccc9c8)c8c(N)ncnc87)cn6)CC5)CC4)nc3)[C@H](OC)C2)CC(=O)[C@H](C)/C=C(\C)[C@@H](O)[C@@H](OC)C(=O)[C@H](C)C[C@H](C)/C=C/C=C/C=C/1C [Example 68] | ≤ 1 nM | ≤ 3.16 nM | > 1000 nM
